{"source": "ChEMBL document CHEMBL6182903", "about": "“Synthetic approaches and clinical application of KRAS inhibitors for cancer therapy” (Eur J Med Chem, 2025)", "key": {"[1]": {"experiment": "PROTAC activity at CRBN/KRAS G12C mutant in human MIA PaCa-2 cells assessed as induction of KRAS G12C degradation", "format": "cell-based"}, "[2]": {"biological_target": "von Hippel-Lindau disease tumor suppressor/GTPase KRas (Homo sapiens, UniProt P01116+P40337, G12C)", "experiment": "PROTAC activity at VHL/KRAS G12C mutant in human MIA PaCa-2 cells assessed as induction of KRAS G12C degradation", "format": "cell-based"}, "[3]": {"biological_target": "T1, GTPase KRas (Homo sapiens, UniProt P01116, G12S)", "experiment": "Inhibition of KRAS G12S mutant in human A549 cells assessed as reduction in ERK phosphorylation", "format": "cell-based"}, "[4]": {"biological_target": "T1, GTPase KRas", "experiment": "Binding affinity to human recombinant GDP-bound KRAS G12S mutant (1 to 169 residues) assessed as inhibition constant"}, "[5]": {"system": "BaF3", "experiment": "Cytotoxicity against mouse BaF3 cells harboring KRAS G12R mutant assessed as reduction in cells growth incubated for 72 hrs by Celltiter-Glo luminescence-based assay", "format": "functional, cell-based", "conditions": "BaF3, 72 h"}}}
{"smiles": "C=CC(=O)N1CCN(c2nc(NCCCN3CCN(CCCNc4cccc5c4C(=O)N(C4CCC(=O)NC4=O)C5=O)CC3)nc3c(F)c(-c4cc(O)cc5ccccc45)c(Cl)cc23)CC1", "note": "(stereo not given)", "values": [{"measurement": "DC50", "setting": "[1]", "value": 3.2, "unit": "µM"}]}
{"smiles": "C=C(F)C(=O)N1CCN(c2nc(OC[C@@H]3CCCN3CCCOCCC(=O)N[C@H](C(=O)N3C[C@H](O)C[C@H]3C(=O)NCc3ccc(-c4scnc4C)cc3)C(C)(C)C)nc3c2CCN(c2cccc4cccc(Cl)c24)C3)C[C@@H]1CC#N", "values": [{"measurement": "DC50", "setting": "[2]", "value": 0.12, "unit": "µM"}]}
{"smiles": "O=C1O[C@H]2CN(c3nc(OCC45CCCN4CCC5)nc4c3CCN(c3cccc5cccc(Cl)c35)C4)CC[C@@H]12", "values": [{"measurement": "IC50", "setting": "[3]", "value": 2.4, "unit": "µM"}, {"measurement": "Ki", "setting": "[4]", "value": 26, "unit": "µM"}]}
{"smiles": "CC(=O)CC(=O)N1[C@@H]2CC[C@H]1CN(c1nc(OCC34CCCN3CCC4)nc3c(F)c(-c4cccc5cccc(Cl)c45)ncc13)C2", "values": [{"measurement": "IC50", "setting": "[5]", "value": "< 100", "unit": "µM"}]}
